These results are taken from US20180155344A1, “TRICYCLIC PIPERIDINE COMPOUNDS” (ACTELION PHARMACEUTICALS LTD, priority 2015, published 2018).

This assay addresses T1, human TPH1 (Homo sapiens, UniProt P17752).
T1 sequence (P17752 1-444): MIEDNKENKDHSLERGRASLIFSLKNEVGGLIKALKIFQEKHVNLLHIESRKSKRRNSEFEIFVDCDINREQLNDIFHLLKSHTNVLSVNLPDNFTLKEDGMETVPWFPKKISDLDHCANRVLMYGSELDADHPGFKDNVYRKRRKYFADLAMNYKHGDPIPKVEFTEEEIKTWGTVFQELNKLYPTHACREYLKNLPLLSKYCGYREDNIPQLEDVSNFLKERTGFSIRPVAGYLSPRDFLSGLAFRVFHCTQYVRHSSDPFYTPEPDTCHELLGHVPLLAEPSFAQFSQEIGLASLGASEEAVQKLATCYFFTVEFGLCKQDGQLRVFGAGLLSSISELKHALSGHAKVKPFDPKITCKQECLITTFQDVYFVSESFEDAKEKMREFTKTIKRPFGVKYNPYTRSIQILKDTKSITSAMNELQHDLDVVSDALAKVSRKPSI
The assay is described as follows: biochemical. The essentials: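 Inhibition is derived from 5-hydroxy-L-tryptophan fluorescence (540 nm emission, 300 nm excitation) after perchloric acid stop, relative to DMSO vehicle. Recombinant full-length human enzyme (40-80 nM) reacts with 40 μM tryptophan plus 100 μM methyltetrahydropterin, pH 7.6 Tris/DTT/catalase, 15° C, 60 min.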
With `Cc1ccc(C2c3c(nc4cc(C(F)(F)F)ccn34)CCN2C(=O)COc2ccc(CN3CCOCC3)cc2Cl)c(F)c1` (stereo not drawn) [Example 3.22.1, 2-(2-chloro-4-(morpholinomethyl)phenoxy)-1-(1-(2-fluoro-4-methylphenyl)-7-(trifluoromethyl)-3,4-dihydroimidazo[1,2-a:5,4-c′]dipyridin-2(1H)-yl)ethan-1-one], the IC50 (usually the point on the concentration scale where inhibition reaches its midpoint) turned out to be 0.007 µM.

Consider `Cc1ccc(C2c3c(nc4cc(C(F)(F)F)ccn34)CCN2C(=O)COc2cccnc2Cl)c(F)c1` (stereo not drawn) [Example 3.22.2, 2-((2-chloropyridin-3-yl)oxy)-1-(1-(2-fluoro-4-methylphenyl)-7-(trifluoromethyl)-3,4-dihydroimidazo[1,2-a:5,4-c′]dipyridin-2(1H)-yl)ethan-1-one], for which the IC50 was 0.044 µM.

The molecule `Cc1ccc(C2c3c(nc4cc(C(F)(F)F)ccn34)CCN2C(=O)COc2nn(C)c(C(F)(F)F)c2Cl)c(F)c1` (stereo not drawn) [Example 3.22.3, 2-((4-chloro-1-methyl-5-(trifluoromethyl)-1H-pyrazol-3-yl)oxy)-1-(1-(2-fluoro-4-methylphenyl)-7-(trifluoromethyl)-3,4-dihydroimidazo[1,2-a:5,4-c′]dipyridin-2(1H)-yl)ethan-1-one] registered an IC50 of 0.033 µM.

On to `CCc1nc(C)ccc1OCC(=O)N1CCc2nc3cc(C(F)(F)F)ccn3c2C1c1ccc(C)cc1F` (stereo not drawn) [Example 3.22.4, 2-((2-ethyl-6-methylpyridin-3-yl)oxy)-1-(1-(2-fluoro-4-methylphenyl)-7-(trifluoromethyl)-3,4-dihydroimidazo[1,2-a:5,4-c′]dipyridin-2(1H)-yl)ethan-1-one], for which the 50% inhibitory concentration (IC50) was determined as 0.017 µM.

`Cc1ccc(C2c3c(nc4cc(C(F)(F)F)ccn34)CCN2C(=O)COc2ccc(NS(C)(=O)=O)nc2Cl)c(F)c1` (stereo not drawn) [Example 3.22.5, N-(6-chloro-5-(2-(1-(2-fluoro-4-methylphenyl)-7-(trifluoromethyl)-3,4-dihydroimidazo[1,2-a:5,4-c′]dipyridin-2(1H)-yl)-2-oxoethoxy)pyridin-2-yl)methanesulfonamide] displayed an IC50 of 0.015 µM.

As for `Cc1ccc(C2c3c(nc4cc(C(F)(F)F)ccn34)CCN2C(=O)COc2ccc3ccccc3c2)cc1` (stereo not drawn) [Example 3.23.1, 2-(naphthalen-2-yloxy)-1-(1-(p-tolyl)-7-(trifluoromethyl)-3,4-dihydroimidazo[1,2-a:5,4-c′]dipyridin-2(1H)-yl)ethan-1-one], the IC50 was 0.067 µM.

Regarding `Cc1ccc(C2c3c(nc4cc(C(F)(F)F)ccn34)CCN2C(=O)COc2ccc(CN3CCOCC3)cc2Cl)cc1` (stereo not drawn) [Example 3.23.2, 2-(2-chloro-4-(morpholinomethyl)phenoxy)-1-(1-(p-tolyl)-7-(trifluoromethyl)-3,4-dihydroimidazo[1,2-a:5,4-c′]dipyridin-2(1H)-yl)ethan-1-one], the IC50 came out at 0.032 µM.

The molecule `COc1ccc(C2c3c(nc4cc(C(F)(F)F)ccn34)CCN2C(=O)COc2ccc3ccccc3c2)cc1` (stereo not drawn) [Example 3.24.1, 1-(1-(4-methoxyphenyl)-7-(trifluoromethyl)-3,4-dihydroimidazo[1,2-a:5,4-c′]dipyridin-2(1H)-yl)-2-(naphthalen-2-yloxy)ethan-1-one] had an IC50 of 0.044 µM.

The molecule `COc1ccc(C2c3c(nc4cc(C(F)(F)F)ccn34)CCN2C(=O)COc2cccnc2Cl)cc1` (stereo not drawn) [Example 3.24.2, 2-((2-chloropyridin-3-yl)oxy)-1-(1-(4-methoxyphenyl)-7-(trifluoromethyl)-3,4-dihydroimidazo[1,2-a:5,4-c′]dipyridin-2(1H)-yl)ethan-1-one] gave an IC50 of 0.429 µM.

In turn, `CCOc1ccc(C2c3c(nc4cc(C(F)(F)F)ccn34)CCN2C(=O)COc2ccc3ccccc3c2)cc1` (stereo not drawn) [Example 3.25.1, 1-(1-(4-ethoxyphenyl)-7-(trifluoromethyl)-3,4-dihydroimidazo[1,2-a:5,4-c′]dipyridin-2(1H)-yl)-2-(naphthalen-2-yloxy)ethan-1-one] yielded an IC50 of 0.104 µM.

As to `CCOc1ccc(C2c3c(nc4cc(C(F)(F)F)ccn34)CCN2C(=O)COc2ccc(CN3CCOCC3)cc2Cl)cc1` (stereo not drawn) [Example 3.25.2, 2-(2-chloro-4-(morpholinomethyl)phenoxy)-1-(1-(4-ethoxyphenyl)-7-(trifluoromethyl)-3,4-dihydroimidazo[1,2-a:5,4-c′]dipyridin-2(1H)-yl)ethan-1-one], the IC50 turned out to be 0.02 µM.

As to `CCOc1ccc(C2c3c(nc4cc(C(F)(F)F)ccn34)CCN2C(=O)COc2ccc(CN3CCOCC3)c(C)c2C)cc1` (stereo not drawn) [Example 3.25.3, 2-(2,3-dimethyl-4-(morpholinomethyl)phenoxy)-1-(1-(4-ethoxyphenyl)-7-(trifluoromethyl)-3,4-dihydroimidazo[1,2-a:5,4-c′]dipyridin-2(1H)-yl)ethan-1-one], it took 0.051 µM to reach half-maximal inhibition (IC50).

On to `O=C(COc1ccc2ccccc2c1)N1CCc2nc3cc(C(F)(F)F)ccn3c2C1c1ccc(OC(F)F)cc1` (stereo not drawn) [Example 3.26.1, 1-(1-(4-(difluoromethoxy)phenyl)-7-(trifluoromethyl)-3,4-dihydroimidazo[1,2-a:5,4-c′]dipyridin-2(1H)-yl)-2-(naphthalen-2-yloxy)ethan-1-one], for which the IC50 was determined as 0.12 µM.

Regarding `O=C(COc1ccc(CN2CCOCC2)cc1Cl)N1CCc2nc3cc(C(F)(F)F)ccn3c2C1c1ccc(OC(F)F)cc1` (stereo not drawn) [Example 3.26.2, 2-(2-chloro-4-(morpholinomethyl)phenoxy)-1-(1-(4-(difluoromethoxy)phenyl)-7-(trifluoromethyl)-3,4-dihydroimidazo[1,2-a:5,4-c′]dipyridin-2(1H)-yl)ethan-1-one], the IC50 is 0.054 µM.

With `O=C(COc1ccc(CN2CCOCC2)cc1Cl)N1CCc2nc3cc(C(F)(F)F)ccn3c2C1c1ccc(OC(F)(F)F)cc1` (stereo not drawn) [Example 3.27.1, 2-(2-chloro-4-(morpholinomethyl)phenoxy)-1-(1-(4-(trifluoromethoxy)phenyl)-7-(trifluoromethyl)-3,4-dihydroimidazo[1,2-a:5,4-c′]dipyridin-2(1H)-yl)ethan-1-one], inhibition was half-maximal at 0.135 µM (IC50).

In turn, `O=C(COc1ccc2ccccc2c1)N1CCc2nc3cc(C(F)(F)F)ccn3c2C1c1ccc(C(F)(F)F)cc1` (stereo not drawn) [Example 3.28.1, 2-(naphthalen-2-yloxy)-1-(7-(trifluoromethyl)-1-(4-(trifluoromethyl)phenyl)-3,4-dihydroimidazo[1,2-a:5,4-c′]dipyridin-2(1H)-yl)ethan-1-one] yielded an IC50 of 0.154 µM.

Molecule `O=C(COc1ccc(CN2CCOCC2)cc1Cl)N1CCc2nc3cc(C(F)(F)F)ccn3c2C1c1ccc(C(F)(F)F)cc1` (stereo not drawn) [Example 3.28.2, 2-(2-chloro-4-(morpholinomethyl)phenoxy)-1-(7-(trifluoromethyl)-1-(4-(trifluoromethyl)phenyl)-3,4-dihydroimidazo[1,2-a:5,4-c′]dipyridin-2(1H)-yl)ethan-1-one] had an IC50 of 0.077 µM.

On to `O=C(COc1ccc2ccccc2c1)N1CCc2nc3cc(C(F)(F)F)ccn3c2C1c1ccc(F)cc1` (stereo not drawn) [Example 3.29.1, 1-(1-(4-fluorophenyl)-7-(trifluoromethyl)-3,4-dihydroimidazo[1,2-a:5,4-c′]dipyridin-2(1H)-yl)-2-(naphthalen-2-yloxy)ethan-1-one], for which half-maximal inhibition (IC50) was put at 0.312 µM.

`O=C(COc1ccc(CN2CCOCC2)cc1Cl)N1CCc2nc3cc(C(F)(F)F)ccn3c2C1c1ccc(F)cc1` (stereo not drawn) [Example 3.29.2, 2-(2-chloro-4-(morpholinomethyl)phenoxy)-1-(1-(4-fluorophenyl)-7-(trifluoromethyl)-3,4-dihydroimidazo[1,2-a:5,4-c′]dipyridin-2(1H)-yl)ethan-1-one] gave an IC50 of 0.202 µM.

Molecule `O=C(COc1ccc2ccccc2c1)N1CCc2nc3cc(C(F)(F)F)ccn3c2C1c1ccc(Cl)cc1` (stereo not drawn) [Example 3.30.1, 1-(1-(4-chlorophenyl)-7-(trifluoromethyl)-3,4-dihydroimidazo[1,2-a:5,4-c′]dipyridin-2(1H)-yl)-2-(naphthalen-2-yloxy)ethan-1-one] yielded an IC50 of 0.059 µM.

Molecule `O=C(COc1ccc(CN2CCOCC2)cc1Cl)N1CCc2nc3cc(C(F)(F)F)ccn3c2C1c1ccc(Cl)cc1` (stereo not drawn) [Example 3.30.2, 2-(2-chloro-4-(morpholinomethyl)phenoxy)-1-(1-(4-chlorophenyl)-7-(trifluoromethyl)-3,4-dihydroimidazo[1,2-a:5,4-c′]dipyridin-2(1H)-yl)ethan-1-one] gave an IC50 of 0.02 µM.

`COc1cccc(C2c3c(nc4cc(C(F)(F)F)ccn34)CCN2C(=O)COc2ccc3ccccc3c2)c1` (stereo not drawn) [Example 3.32.1, 1-(1-(3-methoxyphenyl)-7-(trifluoromethyl)-3,4-dihydroimidazo[1,2-a:5,4-c′]dipyridin-2(1H)-yl)-2-(naphthalen-2-yloxy)ethan-1-one] yielded an IC50 of 0.228 µM.

Take `Cc1cc(C2c3c(nc4cc(C(F)(F)F)ccn34)CCN2C(=O)COc2ccc3ccccc3c2)ccc1F` (stereo not drawn) [Example 3.33.1, 1-(1-(4-fluoro-3-methylphenyl)-7-(trifluoromethyl)-3,4-dihydroimidazo[1,2-a:5,4-c′]dipyridin-2(1H)-yl)-2-(naphthalen-2-yloxy)ethan-1-one]: the IC50 was 0.127 µM.

As for `Cc1cc(C2c3c(nc4cc(C(F)(F)F)ccn34)CCN2C(=O)COc2ccc(CN3CCOCC3)cc2Cl)ccc1F` (stereo not drawn) [Example 3.33.2, 2-(2-chloro-4-(morpholinomethyl)phenoxy)-1-(1-(4-fluoro-3-methylphenyl)-7-(trifluoromethyl)-3,4-dihydroimidazo[1,2-a:5,4-c′]dipyridin-2(1H)-yl)ethan-1-one], the midpoint of inhibition, the IC50, lay at 0.11 µM.
